Results published in the NIST ThermoML archive (doi:10.1021/je2006049).
Where “and” joins values, the source holds several entries; their conditions need not be identical. Identical values can stand only once. ± gives the expanded uncertainty stated by the source.

Settings: Liquid; for electrical conductivity / mass density: 101.33 kPa; for electrical conductivity: Alternating current cell with electrodes; for mass density: Vibrating tube method

CCCC[N+]1(C)CCCC1.O=S(=O)([N-]S(=O)(=O)C(F)(F)F)C(F)(F)F
Settings	viscosity
273.15 K, 100 kPa, Falling or rolling sphere viscometry	319.28 ± 22 mPa·s and 318.72 ± 22 mPa·s and 320.44 ± 22 mPa·s
273.15 K, 101.3 kPa, Concentric cylinders viscometry	322.4 ± 15 mPa·s
273.15 K, 820 kPa, Falling or rolling sphere viscometry	318.29 ± 22 mPa·s
273.15 K, 10850 kPa, Falling or rolling sphere viscometry	378.12 ± 28 mPa·s
273.15 K, 20760 kPa, Falling or rolling sphere viscometry	441.79 ± 35 mPa·s
273.15 K, 32190 kPa, Falling or rolling sphere viscometry	542.04 ± 45 mPa·s
273.15 K, 40240 kPa, Falling or rolling sphere viscometry	621.51 ± 54 mPa·s
273.15 K, 45000 kPa, Falling or rolling sphere viscometry	677.25 ± 61 mPa·s
273.15 K, 50310 kPa, Falling or rolling sphere viscometry	729.34 ± 67 mPa·s
273.15 K, 59200 kPa, Falling or rolling sphere viscometry	837.7 ± 80 mPa·s
273.15 K, 60550 kPa, Falling or rolling sphere viscometry	855.99 ± 82 mPa·s
273.15 K, 69280 kPa, Falling or rolling sphere viscometry	983.67 ± 99 mPa·s
273.15 K, 70310 kPa, Falling or rolling sphere viscometry	1008.7 ± 100 mPa·s
273.15 K, 80520 kPa, Falling or rolling sphere viscometry	1184.8 ± 130 mPa·s
278.15 K, 100 kPa, Falling or rolling sphere viscometry	224.84 ± 14 mPa·s and 224.85 ± 14 mPa·s
278.15 K, 101.3 kPa, Concentric cylinders viscometry	230.9 ± 10 mPa·s
283.15 K, 100 kPa, Falling or rolling sphere viscometry	167.09 ± 9.2 mPa·s [middle of 4 runs]
283.15 K, 101.3 kPa, Concentric cylinders viscometry	170.1 ± 7.3 mPa·s
283.15 K, 10140 kPa, Falling or rolling sphere viscometry	192.43 ± 11 mPa·s
283.15 K, 19970 kPa, Falling or rolling sphere viscometry	222.97 ± 14 mPa·s
283.15 K, 29990 kPa, Falling or rolling sphere viscometry	259.18 ± 17 mPa·s
283.15 K, 40620 kPa, Falling or rolling sphere viscometry	303.3 ± 21 mPa·s
283.15 K, 50520 kPa, Falling or rolling sphere viscometry	350.45 ± 25 mPa·s
283.15 K, 59770 kPa, Falling or rolling sphere viscometry	398.94 ± 30 mPa·s
283.15 K, 70190 kPa, Falling or rolling sphere viscometry	463.39 ± 37 mPa·s
283.15 K, 78710 kPa, Falling or rolling sphere viscometry	517.26 ± 43 mPa·s
283.15 K, 89720 kPa, Falling or rolling sphere viscometry	620.7 ± 54 mPa·s
283.15 K, 89960 kPa, Falling or rolling sphere viscometry	604.22 ± 52 mPa·s
283.15 K, 100390 kPa, Falling or rolling sphere viscometry	708.87 ± 65 mPa·s and 702.53 ± 64 mPa·s
288.15 K, 101.3 kPa, Concentric cylinders viscometry	128.4 ± 5.4 mPa·s
293.15 K, 100 kPa, Falling or rolling sphere viscometry	99.81 ± 4.6 mPa·s and 99.92 ± 4.6 mPa·s
293.15 K, 101.3 kPa, Concentric cylinders viscometry	98.95 ± 4.1 mPa·s and 99 ± 4.1 mPa·s
298.15 K, 100 kPa, Falling or rolling sphere viscometry	76.63 ± 3.5 mPa·s [middle of 5 runs]
298.15 K, 101.3 kPa, Concentric cylinders viscometry	77.83 ± 3.2 mPa·s
298.15 K, 860 kPa, Falling or rolling sphere viscometry	77.22 ± 3.5 mPa·s
298.15 K, 10370 kPa, Falling or rolling sphere viscometry	87.96 ± 3.9 mPa·s
298.15 K, 20760 kPa, Falling or rolling sphere viscometry	100.93 ± 4.6 mPa·s
298.15 K, 30700 kPa, Falling or rolling sphere viscometry	114.96 ± 5.5 mPa·s
298.15 K, 40660 kPa, Falling or rolling sphere viscometry	130.58 ± 6.6 mPa·s
298.15 K, 50630 kPa, Falling or rolling sphere viscometry	148.26 ± 7.8 mPa·s
298.15 K, 60600 kPa, Falling or rolling sphere viscometry	167.95 ± 9.2 mPa·s
298.15 K, 70390 kPa, Falling or rolling sphere viscometry	189.46 ± 11 mPa·s
298.15 K, 80180 kPa, Falling or rolling sphere viscometry	213.75 ± 13 mPa·s
298.15 K, 90600 kPa, Falling or rolling sphere viscometry	242.18 ± 15 mPa·s
298.15 K, 100230 kPa, Falling or rolling sphere viscometry	271.62 ± 19 mPa·s
303.15 K, 100 kPa, Falling or rolling sphere viscometry	62.82 ± 2.6 mPa·s and 62.63 ± 2.6 mPa·s
303.15 K, 101.3 kPa, Concentric cylinders viscometry	62.26 ± 2.5 mPa·s
313.15 K, 100 kPa, Falling or rolling sphere viscometry	41.27 ± 1.7 mPa·s and 41.24 ± 1.7 mPa·s
313.15 K, 101.3 kPa, Concentric cylinders viscometry	41.72 ± 1.7 mPa·s
323.15 K, 100 kPa, Falling or rolling sphere viscometry	29.04 ± 1.2 mPa·s [middle of 5 runs]
323.15 K, 101.3 kPa, Concentric cylinders viscometry	29.42 ± 1.2 mPa·s
323.15 K, 10520 kPa, Falling or rolling sphere viscometry	32.31 ± 1.3 mPa·s
323.15 K, 20600 kPa, Falling or rolling sphere viscometry	36.21 ± 1.5 mPa·s
323.15 K, 29970 kPa, Falling or rolling sphere viscometry	40.16 ± 1.6 mPa·s
323.15 K, 39910 kPa, Falling or rolling sphere viscometry	44.72 ± 1.8 mPa·s
323.15 K, 50590 kPa, Falling or rolling sphere viscometry	50.06 ± 2 mPa·s
323.15 K, 60550 kPa, Falling or rolling sphere viscometry	55.73 ± 2.3 mPa·s
323.15 K, 70490 kPa, Falling or rolling sphere viscometry	61.77 ± 2.6 mPa·s
323.15 K, 80450 kPa, Falling or rolling sphere viscometry	68.24 ± 2.9 mPa·s
323.15 K, 90470 kPa, Falling or rolling sphere viscometry	75.36 ± 3.2 mPa·s
323.15 K, 100400 kPa, Falling or rolling sphere viscometry	82.99 ± 4.3 mPa·s
333.15 K, 100 kPa, Falling or rolling sphere viscometry	21.31 ± 0.89 mPa·s and 21.3 ± 0.89 mPa·s
333.15 K, 101.3 kPa, Concentric cylinders viscometry	21.64 ± 0.87 mPa·s
343.15 K, 100 kPa, Falling or rolling sphere viscometry	16.14 ± 0.66 mPa·s and 16.13 ± 0.66 mPa·s
343.15 K, 101.3 kPa, Concentric cylinders viscometry	16.46 ± 0.67 mPa·s
348.15 K, 100 kPa, Falling or rolling sphere viscometry	14.07 ± 0.58 mPa·s and 14.06 ± 0.58 mPa·s
348.15 K, 10850 kPa, Falling or rolling sphere viscometry	15.68 ± 0.64 mPa·s
348.15 K, 11990 kPa, Falling or rolling sphere viscometry	15.82 ± 0.65 mPa·s
348.15 K, 21760 kPa, Falling or rolling sphere viscometry	17.54 ± 0.72 mPa·s
348.15 K, 29210 kPa, Falling or rolling sphere viscometry	18.8 ± 0.77 mPa·s
348.15 K, 38020 kPa, Falling or rolling sphere viscometry	20.38 ± 0.84 mPa·s
348.15 K, 49600 kPa, Falling or rolling sphere viscometry	22.9 ± 0.94 mPa·s
348.15 K, 64630 kPa, Falling or rolling sphere viscometry	26.45 ± 1.1 mPa·s
348.15 K, 73060 kPa, Falling or rolling sphere viscometry	28.44 ± 1.2 mPa·s
348.15 K, 85040 kPa, Falling or rolling sphere viscometry	31.53 ± 1.3 mPa·s
348.15 K, 102920 kPa, Falling or rolling sphere viscometry	36.8 ± 1.5 mPa·s
353.15 K, 100 kPa, Falling or rolling sphere viscometry	12.73 ± 0.53 mPa·s and 12.67 ± 0.52 mPa·s
353.15 K, 101.3 kPa, Concentric cylinders viscometry	12.91 ± 0.52 mPa·s
363.15 K, 101.3 kPa, Concentric cylinders viscometry	10.35 ± 0.42 mPa·s

Settings	electrical conductivity [S/m]	mass density
273.15 K	0.0741 ± 0.003	1416.89 ± 0.59 kg/m3 and 1416.94 ± 0.31 kg/m3 and 1416.7 ± 3.9 kg/m3
278.15 K	0.101 ± 0.0041	1412.1 ± 3.9 kg/m3
283.15 K	0.134 ± 0.0054	1407.76 ± 0.59 kg/m3 and 1407.82 ± 0.31 kg/m3 and 1407.6 ± 3.9 kg/m3
288.15 K	0.174 ± 0.007	1403.39 ± 0.31 kg/m3 and 1403.2 ± 3.8 kg/m3
293.14 K	0.221 ± 0.0089	–
293.15 K	–	1398.92 ± 0.58 kg/m3 [middle of 4 runs]
298.14 K	0.276 ± 0.011	–
298.15 K	0.275 ± 0.011	1394.51 ± 0.57 kg/m3 and 1394.4 ± 3.8 kg/m3
303.15 K	0.338 ± 0.013	1390.1 ± 0.57 kg/m3 and 1390.17 ± 0.3 kg/m3 and 1390 ± 3.8 kg/m3
313.15 K	0.486 ± 0.019	1381.31 ± 0.56 kg/m3 and 1381.38 ± 0.3 kg/m3 and 1381.2 ± 3.7 kg/m3
323.14 K	0.667 ± 0.027	–
323.15 K	–	1372.58 ± 0.55 kg/m3 and 1372.67 ± 0.3 kg/m3 and 1372.5 ± 3.7 kg/m3
333.15 K	0.879 ± 0.035	1363.89 ± 0.54 kg/m3 and 1363.97 ± 0.29 kg/m3 and 1363.9 ± 3.6 kg/m3
343.14 K	1.12 ± 0.045	–
343.15 K	–	1355.26 ± 0.54 kg/m3 and 1355.36 ± 0.29 kg/m3 and 1355.3 ± 3.6 kg/m3
353.15 K	1.39 ± 0.056	1346.69 ± 0.53 kg/m3 and 1346.78 ± 0.29 kg/m3 and 1346.8 ± 3.5 kg/m3
363.15 K	–	1338.16 ± 0.52 kg/m3 and 1338.25 ± 0.29 kg/m3 and 1338.4 ± 3.5 kg/m3
